Several values for one entry are separate records, joined by “and”; a condition that tells them apart may be missing. Equal values may be shown once. Inconclusive results and toxic doses are left out.
Test system: BDF1 mice, intracerebral L1210 leukemia, survival T/C
Experiment: NCI In Vivo Anticancer Drug Screen. Data for tumor model L1210 Leukemia (intracerebral) in B6D2F1 (BDF1) mice
Details: higher = longer survival
Method in brief: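 Survival measured in treated and vehicle-control tumour-bearing mice; value = T/C.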

[1] = endpoint: mean survival time, dose: 12.0 mg/kg/injection, schedule: Q01DX001 (ip), vehicle: carboxymethylcellulose (CMC)
[2] = endpoint: mean survival time, dose: 18.0 mg/kg/injection, schedule: Q01DX001 (ip), vehicle: carboxymethylcellulose (CMC)

In the case of `CC12CC3(C)CC(C)(C1)CC(NC(=O)N(CCCl)N=O)(C2)C3`, the T/C (endpoint: mean survival time, dose: 45.0 mg/kg/injection, schedule: Q01DX001 (ip), vehicle: other) is reported as 95 % of control, the T/C (endpoint: mean survival time, dose: 60.0 mg/kg/injection, schedule: Q01DX001 (ip), vehicle: other) is reported as 97 % of control and the T/C (endpoint: mean survival time, dose: 90.0 mg/kg/injection, schedule: Q01DX001 (ip), vehicle: other) is reported as 104 % of control. The T/C (endpoint: mean survival time, dose: 125.0 mg/kg/injection, schedule: Q01DX001 (ip), vehicle: other) was 110 % of control and the T/C (endpoint: mean survival time, dose: 187.0 mg/kg/injection, schedule: Q01DX001 (ip), vehicle: other) was 112 % of control.

With `CC(Cl)CNC(=O)N(CC(C)Cl)N=O` (configuration not stated) the T/C (endpoint: mean survival time, dose: 250.0 mg/kg/injection, schedule: Q01DX001 (ip), vehicle: carboxymethylcellulose (CMC)) was 107 % of control, the T/C (endpoint: mean survival time, dose: 500.0 mg/kg/injection, schedule: Q01DX001 (ip), vehicle: carboxymethylcellulose (CMC)) was 112 % of control and the T/C (endpoint: mean survival time, dose: 1000.0 mg/kg/injection, schedule: Q01DX001 (ip), vehicle: carboxymethylcellulose (CMC)) was 204 % of control.

In the case of `O=NN(CCCl)C(=O)Nc1cccc([N+](=O)[O-])c1`, the T/C [1] is reported as 102 % of control, the T/C [2] is reported as 118 % of control and the T/C (endpoint: mean survival time, dose: 26.0 mg/kg/injection, schedule: Q01DX001 (ip), vehicle: carboxymethylcellulose (CMC)) is reported as 117 % of control. The T/C (endpoint: mean survival time, dose: 40.0 mg/kg/injection, schedule: Q01DX001 (ip), vehicle: carboxymethylcellulose (CMC)) was 115 % of control.

In the case of `CCCC(=O)NC1=C(N2CC2)C(=O)C(NC(=O)CCC)=C(N2CC2)C1=O`, the T/C (endpoint: mean survival time, dose: 1.0 mg/kg/injection, schedule: Q01DX009 (ip), vehicle: saline) is reported as 105 % of control, the T/C (endpoint: mean survival time, dose: 4.0 mg/kg/injection, schedule: Q01DX009 (ip), vehicle: saline) is reported as 152 % of control and the T/C (endpoint: mean survival time, dose: 8.0 mg/kg/injection, schedule: Q01DX009 (ip), vehicle: saline) is reported as 89 % of control.

`S=c1nc[nH]c2nc[nH]c12` was tested, and the T/C (endpoint: mean survival time, dose: 5.0 mg/kg/injection, schedule: Q01DX009 (ip), vehicle: alkali diluted with saline) was 122 % of control, the T/C (endpoint: mean survival time, dose: 6.0 mg/kg/injection, schedule: Q01DX015 (ip), vehicle: alkali diluted with saline) was 114 % of control and the T/C (endpoint: mean survival time, dose: 9.0 mg/kg/injection, schedule: Q01DX015 (ip), vehicle: alkali diluted with saline) was 120 % of control. For the same molecule, the T/C (endpoint: mean survival time, dose: 14.0 mg/kg/injection, schedule: Q01DX015 (ip), vehicle: alkali diluted with saline) was 120 % of control, the T/C (endpoint: mean survival time, dose: 60.0 mg/kg/injection, schedule: Q01DX001 (ip), vehicle: alkali diluted with saline) was 111 % of control and the T/C (endpoint: mean survival time, dose: 80.0 mg/kg/injection, schedule: Q01DX009 (ip), vehicle: alkali diluted with saline) was 181 % of control. The T/C (endpoint: mean survival time, dose: 90.0 mg/kg/injection, schedule: Q01DX001 (ip), vehicle: alkali diluted with saline) was 117 % of control, the T/C (endpoint: mean survival time, dose: 135.0 mg/kg/injection, schedule: Q01DX001 (ip), vehicle: alkali diluted with saline) was 115 % of control and the T/C (endpoint: median survival time, dose: 100.0 mg/kg/injection, schedule: Q01DX001 (oral), vehicle: saline with Tween-80) was 115 % of control. For the same molecule, the T/C (endpoint: median survival time, dose: 200.0 mg/kg/injection, schedule: Q01DX001 (oral), vehicle: saline with Tween-80) was 113 % of control and the T/C (endpoint: median survival time, dose: 400.0 mg/kg/injection, schedule: Q01DX001 (oral), vehicle: saline with Tween-80) was 118 % of control.

For `CCN(CC)c1ccc2cc3ccc(=[N+](CC)CC)cc-3oc2c1`, the T/C (endpoint: mean survival time, dose: 8.0 mg/kg/injection, schedule: Q01DX001 (ip), vehicle: saline) was 97 % of control, the T/C (endpoint: mean survival time, dose: 13.0 mg/kg/injection, schedule: Q01DX001 (ip), vehicle: saline) was 96 % of control and the T/C (endpoint: mean survival time, dose: 19.0 mg/kg/injection, schedule: Q01DX001 (ip), vehicle: saline) was 100 % of control.

With `O=C1NC2(CCCCC2)C(=O)N1CCN(CCCl)CCCl` the T/C (endpoint: mean survival time, dose: 0.78 mg/kg/injection, schedule: Q01DX009 (ip), vehicle: saline) was 101 % of control, the T/C (endpoint: mean survival time, dose: 1.56 mg/kg/injection, schedule: Q01DX009 (ip), vehicle: saline) was 89 % of control and the T/C (endpoint: mean survival time, dose: 3.12 mg/kg/injection, schedule: Q01DX009 (ip), vehicle: saline) was 95 % of control. The T/C (endpoint: mean survival time, dose: 6.25 mg/kg/injection, schedule: Q01DX009 (ip), vehicle: saline) was 102 % of control and the T/C (endpoint: mean survival time, dose: 12.5 mg/kg/injection, schedule: Q01DX009 (ip), vehicle: saline) was 91 % of control.

With `CCN(CC)CCNc1ccc(CO)c2sc3ccccc3c(=O)c12` the T/C (endpoint: mean survival time, dose: 1.0 mg/kg/injection, schedule: Q01DX005 (ip), vehicle: saline) was 97 % of control, the T/C (endpoint: mean survival time, dose: 2.0 mg/kg/injection, schedule: Q01DX005 (ip), vehicle: saline) was 96 % of control and the T/C (endpoint: mean survival time, dose: 4.0 mg/kg/injection, schedule: Q01DX005 (ip), vehicle: saline) was 100 % of control. The T/C (endpoint: mean survival time, dose: 8.0 mg/kg/injection, schedule: Q01DX005 (ip), vehicle: saline) was 98 % of control, the T/C (endpoint: mean survival time, dose: 16.0 mg/kg/injection, schedule: Q01DX005 (ip), vehicle: saline) was 100 % of control and the T/C (endpoint: mean survival time, dose: 32.0 mg/kg/injection, schedule: Q01DX005 (ip), vehicle: saline) was 107 % of control. The T/C (endpoint: mean survival time, dose: 64.0 mg/kg/injection, schedule: Q01DX005 (ip), vehicle: saline) was 123 % of control.

For `C#CCOCC(CCl)OC(=O)Nc1ccccc1` (configuration not stated), the T/C (endpoint: mean survival time, dose: 25.0 mg/kg/injection, schedule: Q04DX003 (ip), vehicle: saline with Tween-80) was 100 % of control, the T/C (endpoint: mean survival time, dose: 50.0 mg/kg/injection, schedule: Q04DX003 (ip), vehicle: saline with Tween-80) was 115 % of control and the T/C (endpoint: mean survival time, dose: 100.0 mg/kg/injection, schedule: Q04DX003 (ip), vehicle: saline with Tween-80) was 105 % of control. For the same molecule, the T/C (endpoint: mean survival time, dose: 200.0 mg/kg/injection, schedule: Q04DX003 (ip), vehicle: saline with Tween-80) was 109 % of control and the T/C (endpoint: mean survival time, dose: 400.0 mg/kg/injection, schedule: Q04DX003 (ip), vehicle: saline with Tween-80) was 105 % of control.

`O=NN(CCCl)C(=O)NC1CCSCC1` was tested, and the T/C (endpoint: mean survival time, dose: 3.0 mg/kg/injection, schedule: Q01DX001 (ip), vehicle: carboxymethylcellulose (CMC)) was 114 % of control, the T/C (endpoint: mean survival time, dose: 5.0 mg/kg/injection, schedule: Q01DX001 (ip), vehicle: carboxymethylcellulose (CMC)) was 152 % of control and 154 % of control and the T/C (endpoint: mean survival time, dose: 6.0 mg/kg/injection, schedule: Q01DX001 (ip), vehicle: carboxymethylcellulose (CMC)) was 161 % of control. For the same molecule, the T/C (endpoint: mean survival time, dose: 8.0 mg/kg/injection, schedule: Q01DX001 (ip), vehicle: carboxymethylcellulose (CMC)) was 203 % of control and 208 % of control, the T/C (endpoint: mean survival time, dose: 9.0 mg/kg/injection, schedule: Q01DX001 (ip), vehicle: carboxymethylcellulose (CMC)) was 217 % of control and the T/C [1] was 245 % of control and 316 % of control. For the same molecule, the T/C (endpoint: mean survival time, dose: 14.0 mg/kg/injection, schedule: Q01DX001 (ip), vehicle: carboxymethylcellulose (CMC)) was 286 % of control, the T/C [2] was 230 % of control and the T/C (endpoint: mean survival time, dose: 21.0 mg/kg/injection, schedule: Q01DX001 (ip), vehicle: carboxymethylcellulose (CMC)) was 155 % of control. For the same molecule, the T/C (endpoint: mean survival time, dose: 27.0 mg/kg/injection, schedule: Q01DX001 (ip), vehicle: carboxymethylcellulose (CMC)) was 94 % of control and the T/C (endpoint: mean survival time, dose: 32.0 mg/kg/injection, schedule: Q01DX001 (ip), vehicle: carboxymethylcellulose (CMC)) was 93 % of control.

With `Cc1c(O)ccc(=O)n1O` the T/C (endpoint: mean survival time, dose: 49.0 mg/kg/injection, schedule: Q01DX Z (ip), vehicle: other) was 98 % of control, the T/C (endpoint: mean survival time, dose: 73.0 mg/kg/injection, schedule: Q01DX Z (ip), vehicle: other) was 96 % of control and the T/C (endpoint: mean survival time, dose: 110.0 mg/kg/injection, schedule: Q01DX Z (ip), vehicle: other) was 93 % of control. For the same molecule, the T/C (endpoint: mean survival time, dose: 165.0 mg/kg/injection, schedule: Q01DX Z (ip), vehicle: other) was 110 % of control and the T/C (endpoint: mean survival time, dose: 247.0 mg/kg/injection, schedule: Q01DX Z (ip), vehicle: other) was 92 % of control.

Reference: PubChem BioAssay AID252 (DTP/NCI, 2004)
